From patent US20100256395A1, “EFFICIENT METHOD FOR PRODUCING MUGINEIC ACIDS” (SUNTORY HOLDINGS LIMITED, priority 2006, published 2010)

Test system: mugineic acid-Fe complex transporter HvYS1
Experiment: Iron uptake activity: electrophysiological measurement of intracellular uptake of mugineic acid-Fe complex in oocytes expressing the transporter
Assay type: cell-based, barley
Conditions: substrate-Fe complex final concentration 50 μM; African clawed frog oocytes expressing HvYS1; natural mugineic acid set to 100%; FIG. 1
From the text: Concerning the S isomer (natural form) and R isomer of 2′-OH obtained in Example 12, 2′-deoxy isomer obtained in Example 9, and mugineic acid purified from barley by the method described in “Takagi, S. et al., Journal of Plant Nutrition, 1984, 7th volume, p 469-477”, it was verified that the intracellular uptake of iron complex thereof actually takes place via the mugineic acid-Fe complex transporter. According to the method described in “Murata, Y. et al., Plant Journal (Plant J), 2006, 46th volume, p. 563-572.”, the gene HvYS1 gene which codes the mugineic acid-Fe complex transporter of barley (Plant J. 2006, vol. 46, 563-572) was introduced into the oocytes of the African clawed frog. […] The intracellular uptake of mugineic acid-Fe complex was measured using Oocyte clamp OC-725C (Warner Instrument) by the detection of electrochemical signal. More specifically, the oocyte which expressed the mugineic acid-Fe complex transporter HvYS1 was set to the chamber filled with ND-96 solution, 10 μl of a 5 mM substrate-Fe complex solution (final concentration 50 μM) was sprinkled on the oocyte and the electrical physiological activity was measured. The oocyte was plugged with 2 microelectrodes filled with 3M KCl, and with the mode in which the electric potential of the experimental tank was fixed at 0 V, the current value changing at a fixed electrical potential, […], was measured. […]

In the case of `O=C(O)[C@@H](NCC[C@H](O)C(=O)O)[C@@H](O)CN1CC[C@H]1C(=O)O` [natural mugineic acid, mugineic acid], the “size of the current value (electrical physiological activity), relative value to natural mugineic acid” value is reported as 100%.
